# Measurements published in patent US20080004247A1, “Combinations of Statins with Bronchodilators” (ASTRAZENECA AB, priority 2004, published 2008).
# Test: Meta-analysis of 2 one-year clinical trials: incidence of severe COPD exacerbations with and without concomitant statins
# Assay type: in vivo, patients
# Details: severe exacerbations = need for a treatment course of oral corticosteroids
# Method: A meta-analysis was performed from 2 one-year clinical trials in moderate to severe COPD. Patients treated with budesonide (Pulmicort®), formoterol (Oxis®), formoterol+budesonide (Symbicort®) or Placebo were analysed with and without statins as concomitant medication. The incidence of severe exacerbations, defined as need for a treatment course of oral corticosteroids, was determined.
# [1] = PLUS STATINS as concomitant medication
Compound,Incidence of exacerbations per year (EXCLUDING STATINS),Incidence of exacerbations per year [1]
"CCCC1O[C@@H]2C[C@H]3[C@@H]4CCC5=CC(=O)C=C[C@]5(C)[C@H]4[C@@H](O)C[C@]3(C)[C@]2(C(=O)CO)O1 (stereo partly shown) [Budesonide, budesonide]",0.9 (n = 379) per year,0.7 (n = 8) per year
"COc1ccc(CC(C)NCC(O)c2ccc(O)c(NC=O)c2)cc1 (stereo not shown) [Formoterol, formoterol]",1.0 (n = 388) per year,0.4 (n = 9) per year
